The subject of experiment [1] is phosphorylated fos-GHRct (fos-GHRct/Jak2 signaling). Put plainly: Cell based primary screen: immune fluorescence (anti-GHR, anti-pY, anti-pJak2, anti-pSTAT5) of fos-GHRct-transfected γ2A iJak2 cells. More on the design: species or system human. Particulars: for IC50: Homo sapiens, Table_2.xlsx, second analogue set, read-out: GHR INHIBITORS, BM#, IC50. As for the experimental part:
Drug handling and cell-based assays are detailed in Supplementary Data 1 , automation. High-Content StratoMineR ([35]). After incubation with the compounds, the cells were fixed and the fluorescence (anti-GHR, anti-pY, anti-pJak2, anti-pSTAT5) was quantitated.
As it was unknown whether the GH/IGF1 axis is druggable, we designed a broad strategy based on our previous studies in which soluble fos-zipped GHR cytosolic tails (fos-GHRct) can serve as signaling complexes if co-expressed with Jak ([32], [39]). Fos-GHRct expressed without Jak2 is immediately degraded by the ubiquitin pathway. Phosphorylated fos-GHRct (fos-pGHRct) detaches from Jak2 and unzips. Only unzipped fos-pGHRct are protected from proteasomal degradation and accumulate in the cell. […] For 6 scenarios the signal will be decreased: (1) inhibition of Jak2 kinase activity, (2) inhibition of fos-GHRct expression, (3) inhibition of the fos-GHRct : Jak2 interaction, (4) increased degradation of fos-pGHRct, (5) increased degradation of Jak2, and (6) dephosphorylation of fos-pGHRct ([32], [39]).
Figure 1 Diagram of the primary screen. […] If fos-GHRct and Jak2 bind via FERM and box-1, Jak2 gets activated and phosphorylates itself, the dimerized fos-GHRct and STAT5b. After phosphorylation of fos-GHRct, Jak2 and STAT5, the complex dissociates. As fos-pGHRct is protease-resistant, it accumulates in the cells. Unphosphorylated fos-GHRct is rapidly degraded. Steady state levels of fos-pGHRct are lower if one of the 6 scenarios is valid. The cell-based assay was performed in γ2A cells carrying inducible Jak2 (iJak2) or binding-deficient iJak2 Y119E (as control) ( Figure 2 ). […]
1. Cell based primary screen
The assay was based on Fos-zippered GHR cytosolic tails (fos-GHRct) subsequently acting […]
Fig S1A. Immune Fluorescence staining of γ2a Fig S1B. Immune Fluorescence staining of γ2a monoclonal cell line stably transfected with an monoclonal cell line stably transfected with an inducible Jak2 WT expression construct. inducible Jak2 Y119E expression construct. aim we used a human fibroblast cell line
From this line we generated doxycycline inducible Jak2 clones, expressing either wild type Jak2 or Y119E mutant Jak2 whose FERM domain does […]
To establish a sensitive test, sufficient […]
control the system, we used fos-GHRct mutated in box-1 or the cell line expressing mutant (Y119E) Jak2. The box-1 motif is the binding site of Jak2 in GHR; mutation of this motif (all four proline into alanine) is known to reduce the binding between GHR and Jak2. In the primary screen we measured 4 different signals: fos-GHRct (anti-GHR), tyrosine phosphorylated fos-GHRct (anti-pY), tyrosine phosphorylated Jak2 (anti-pY or anti- […]
inhibition of either fos-GHRct stabilization or fos-GHRct synthesis, are considered positive.
Immunoblots are not appropriate for high throughput screening. Using fos-GHRct-transfected cells as in Fig. S3 and pY-specific primary antibodies, we developed a high throughput screening assay based on pY-fos-GHRct immune fluorescent detection in 384-well plates with automated microscopy. […]
panel). From left to right: Dapi staining to visualize nuclei, fos-GHRct staining: GHRtails are detected by […]

In experiment [2] the test system is MM231. Also on record: method as in PMID 28576744, PMID 17463090. Particulars: cited from earlier work.
Experiment [3] relates to hGH. As to the kind of experiment: Steady state hGH in hGH-transfected Y2A cells (general protein synthesis). In kind it is cell-based, human. Particulars: drug treatment overnight (10 µM); CHX 40 µg/ml. An excerpt:
Figure S14. The best 5 compounds from the dose-response curves were used to test their effect on cell proliferation. They inhibit proliferation of triple negative human breast cancer (MDA-MB-231) cells and colon […]
8. Effect of selected drugs on GH synthesis […]
intracellular steady state concentration of a secretory glycoprotein (human growth hormone, hGH): its steady state is the result of synthesis, glycosylation, intracellular transport and […]
amount of hGH, while none of the compounds changed the steady state concentration in the […]
Figure S15. Y2A cells were transfected with 5 µg of a hGH-pcDNA construct in a 24-well plate; drug treatment overnight (10 µM) as indicated (CHX, cycloheximide 40 µg/ml). […]
control drug, 10 µM. Right lane: human GH 20 ng (control). Only cycloheximide decreased the steady state concentration of hGH in the cells. hGH in the lysates was detected with a rabbit anti-GH antibody.
Furqan, M., N. Mukhi, B. Lee, and D. Liu. 2013. Dysregulation of JAK-STAT pathway in hematological malignancies and JAK inhibitors for clinical application. Biomarker research. 1:5.
Malergue, F., A. van Agthoven, C. Scifo, D. Egan, and G.J. Strous. 2015. Automation of a phospho-STAT5 staining procedure for flow cytometry for application in drug discovery. J Biomol Screen. 20:416-421.
Nespital, T., L.M. van der Velden, A. Mensinga, E.D. van der Vaart, and G.J. Strous. 2016. […]

For experiment [4], the system named is COLO-205 human colon cancer cells. Also on record: method as in PMID 15736405. Particulars: cited from earlier work.
Experiment [5] deals with GH-induced GHR-Jak2-Stat5 signaling in IM9 lymphoblasts. As to the kind of experiment: Flow cytometric (FACS) pSTAT5 test, GH-induced, IM9 cells in whole blood. Particulars: drugs 50 µM for 15 MIN. (A flow cytometer gives signals particle by particle.)
Procedure: First round: The PerFix EXPOSE (Beckman Coulter), was used to fix and permeabilize cells according to the optimized procedure described in Malergue et al., 2015 ([36]). Samples were analyzed in FC500 MPL. Data were analyzed with Kaluza software (Beckman Coulter). Second round: the PerFix EXPOSE was used according to the IFU and samples were analyzed in a Navios Cytometer. The first screening used pure IM-9 cells, whereas in the second round they were spiked in 100 µL whole blood (EDTA tubes). 15 min after the inhibitory compounds, the activators were added for 20-30 min.
In short: A mixture of blood and
IM9 human lymphoblast was incubated with the drugs (50 µM) for 15 MIN; GH and GM-CSF
were added 7 min before the cells were fixed with formaldehyde. Blood cells are sensitive to
GM-CSF, and not to GH; IM9 cells are sensitive to GH. A mixture of three antibodies in three
colors; CD14-FITC, CD34-PE and p-Stat5-Alexa 647 was used to analyze the p-Stat5 levels
of monocytes and IM9 cells.
Fig. S8A. FACS plots of compounds that inhibit GH-induced GHR-Jak2-Stat5 signaling in IM9 lymphoblasts.
The end point of the signaling cascade is measured by assessing the phosphorylation status of STAT5.
Stat5. Conc of drugs: 1 mM; incubation time 30 min
Fig. S8B. FACS plots of compounds that inhibit GM-CSF-Jak2-Stat5 signaling in blood monocytes. The end
point of the signaling cascade is measured by assessing the phosphorylation status of STAT5.

The term IC50 denotes the point on the concentration scale where inhibition reaches its midpoint. Consider `CC1(C)Cc2ccc3nc(N)nc(N)c3c2O1` [BM014], for which the IC50 in experiment [1] came out at 900 nM.
On the same count and under the same terms, then `Nc1nc(N)c2c(ccc3c2ccn3CC2CC2)n1` [BM009], with 600 nM.
As to `Cc1ccc(S(=O)(=O)OCC(=O)Nc2ccc(C(=O)O)c(O)c2)cc1` [S3I-201], in experiment [2], the “tumor response (in words)” value is “tumor regression”.
With `Cc1cc(C)cc(-c2ccc3nc(N)nc(N)c3c2C)c1` [BM008], in experiment [1], the IC50 turned out to be 500 nM.
On the same count and under the same terms, then `Cc1nc(N)nc(N)c1CCC(C)c1ccc(F)cc1` (stereo not drawn) [BM006], with 200 nM; and `CCOC(=O)CCOc1c(OC)cc(NCc2ccc3nc(N)nc(N)c3c2C)cc1OC` [BM005], with 200 nM.
On to `C[C@@H]1C[C@@H]([C@H](O)CC2CC(=O)NC(=O)C2)C(=O)[C@@H](C)C1` [cycloheximide], for which the “steady state concentration of hGH in the cells” value in experiment [3] was “decreased”.
In the case of pegvisomant, in experiment [4], the “decrease in tumor weight compared to controls” value was 44% and the “decrease in tumor-volume compared to controls” value is 39%.
Consider `Cc1c(-c2cccc(S(C)(=O)=O)c2)ccc2nc(N)nc(N)c12` [BM011], for which the IC50 in experiment [1] worked out at 900 nM.
Regarding `CCn1c(C(=O)N(C2CC2)C2CC2)cc2c3c(ncn3C)c(Nc3cc(C)n(C)n3)nc21` [BMS-911543, reference compound], the “IC50, percentage pY positive cells” value in experiment [1] (γ2A cells treated for 24 h, Fig S5) was “nanomolar range”.
Take `CC(C)(/C=C/c1c(N)nc(N)nc1CCC(F)(F)F)c1ccc(C(F)(F)F)cc1` [BM007]: in experiment [1], the IC50 stood at 400 nM.
With `O=C1C(Cl)=C/C(=N/S(=O)(=O)c2cccs2)c2ccccc21` [AQ-390/41647621], the “inhibition in the FACS assay” value in experiment [5] is recorded as > 30%.
On to `Cc1c(-c2cccc(C(F)(F)F)c2)ccc2nc(N)nc(N)c12` [BM013], for which the IC50 in experiment [1] stood at 900 nM.
Consider `Cc1nc(N)nc(NCc2ccccn2)c1/C=C/C(C)(C)c1ccc(C(F)(F)F)cc1` [BM010], for which the IC50 in experiment [1] was 800 nM.
